Measured values from patent US20250195513A1, “DEGRADATION OF IRAK4 BY CONJUGATION OF IRAK4 INHIBITORS WITH E3 LIGASE LIGAND AND METHODS OF USE” (BeiGene, Ltd., priority 2022, published 2025).

Assays:
Type in all cases: cell-based
IRAK4 [1] = molecular target: T1, IRAK4 (Homo sapiens, UniProt Q9NWZ3); experiment: IRAK4 Degradation Assay (Karpas299, HTRF/TR-FRET); details: Karpas-299 cells; for Dmax: maximum percentage of degradation
T1 construct: endogenous in cells; host or cells: Karpas299
T1 sequence (Q9NWZ3 1-460): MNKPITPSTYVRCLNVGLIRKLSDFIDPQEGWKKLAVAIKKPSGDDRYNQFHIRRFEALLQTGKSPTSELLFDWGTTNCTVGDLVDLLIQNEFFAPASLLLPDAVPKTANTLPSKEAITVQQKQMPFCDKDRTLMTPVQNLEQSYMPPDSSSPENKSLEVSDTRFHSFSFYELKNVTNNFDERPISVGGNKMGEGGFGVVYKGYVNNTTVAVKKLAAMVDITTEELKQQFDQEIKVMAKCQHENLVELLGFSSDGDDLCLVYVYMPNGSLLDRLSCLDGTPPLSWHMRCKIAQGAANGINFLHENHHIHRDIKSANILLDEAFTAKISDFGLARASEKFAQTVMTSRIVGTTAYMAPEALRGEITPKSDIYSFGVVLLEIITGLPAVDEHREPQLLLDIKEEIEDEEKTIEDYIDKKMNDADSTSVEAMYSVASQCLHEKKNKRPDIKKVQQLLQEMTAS
Procedure, shortened: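 Karpas299 cells at 0.2 million per well were exposed to serially diluted compounds for 24 h or 5 h, then lysed. IRAK4 remaining in lysates was quantified by HTRF (665/620 nm) after overnight antibody incubation at room temperature. Percent degradation was fitted to a four-parameter curve to give IC50 (DC50).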

[2] = tested on: IL-6 production in human PBMC; experiment: IL-6 Production Assay in Human PBMC (LPS stimulated); details: Homo sapiens, 5 h; for Emax: maximum inhibition, read-out: IL-6 (PBMC) 5 h IMax
Protocol: Frozen human PBMC (AllCells) were thawed in RPMI 1640 medium (Thermo Scientific) supplemented with 10% heat-inactivated FBS (Thermo Scientific) and recovered at 37° C. overnight. The next day, PBMC were seeded into 96-well plates at the density of 0.2 million cells per well and treated with compounds for 24 h. Then lipopolysaccharide was added at the final concentration of 10 ng/mL for 5 h. Culture supernatant was collected for subsequent measurement of IL-6 concentration by a TR-FRET-based method (Degorce, François, et al. Current chemical genomics. 2009, 3: 22) as described by the manufacturer manual (Cisbio). FRET signals were measured with PHERAstar FSX reader (BMG Labtech).

[3] = tested on: TNF-α production in THP-1 cells; experiment: TNF-α Production Assay in THP-1 Cells (LPS stimulated); details: Homo sapiens, THP-1, 24 h; for Emax: maximum inhibition, read-out: TNF-α (THP-1) 24 h IMax
Procedure, shortened: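 Cells (0.2 million/well) pretreated with compounds for 24 h, then stimulated with LPS at 1 μg/mL final for 24 h. TNF-α in culture supernatant quantified by TR-FRET immunoassay.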

IRAK4 [4] = molecular target: T1, IRAK4; experiment: IRAK4 Degradation Assay with Human Serum (Karpas299, HTRF/TR-FRET); details: Karpas-299 in human serum, 24 hrs treatment; for DC50: read-out: IRAK4 degradtion with human serum assay DC50; for Dmax: read-out: IRAK4 degradtion with human serum assay Dmax (%)
Procedure, shortened: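 Karpas299 cells in human AB serum (0.2 million/well) treated with serial compound dilutions for 24 h. After lysis, IRAK4 quantified by HTRF (overnight antibody incubation at room temperature, 665/620 nm read). Degradation percentage fitted to four-parameter curve to give DC50.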

[5] = 5 h treatment, read-out: IRAK4 in Karpas-299 (5 h) Dmax (%)
[6] = 5 h treatment, read-out: IRAK4 in Karpas-299 (5 h) DC50
[7] = 24 h treatment, read-out: IRAK4 in Karpas-299 (24 h) Dmax (%)
[8] = 24 h treatment, read-out: IRAK4 in Karpas-299 (24 h) DC50

Row | SMILES | Dmax (IRAK4 [1]; [5]) | DC50 (IRAK4 [1]; [6]) | Dmax (IRAK4 [1]; [7]) | DC50 (IRAK4 [1]; [8]) | IC50 [3] | DC50 (IRAK4 [4]) | Dmax (IRAK4 [4]) | IC50 [2] | Emax [2] | Emax [3]
1 | CC(C)(O)c1cc2nn([C@H]3CC[C@H](N4CCN(C5CN(c6cc(F)c([C@H]7CCC(=O)NC7=O)c(F)c6)C5)CC4)CC3)cc2cc1NC(=O)c1ccc2cc(C#N)cnn12 [Example 110, 3-cyano-N-(2-((1R,4r)-4-(4-(1-(4-((R)-2,6-dioxopiperidin-3-yl)-3,5-difluorophenyl)azetidin-3-yl)piperazin-1-yl)cyclohexyl)-6-(2-hydroxypropan-2-yl)-2H-indazol-5-yl)pyrrolo[1,2-b]pyridazine-7-carboxamide] | 94% | 1.1 nM | 98% | 0.8 nM | 27 nM | 8.3 nM | 100% | 1.5 nM | 63% | 83%
2 | CC(C)(O)c1cc2nn(C34CCC(N5CCN(CCc6cc(F)c([C@H]7CCC(=O)NC7=O)c(F)c6)CC5)(CC3)CC4)cc2cc1NC(=O)c1ccc2cc(C#N)cnn12 [Example 151, (R)-3-cyano-N-(2-(4-(4-(4-(2,6-dioxopiperidin-3-yl)-3,5-difluorophenethyl)piperazin-1-yl)bicyclo[2.2.2]octan-1-yl)-6-(2-hydroxypropan-2-yl)-2H-indazol-5-yl)pyrrolo[1,2-b]pyridazine-7-carboxamide] | – | – | 99% | 0.9 nM | 27 nM | 3.9 nM | 101% | 7.4 nM | 53% | 84%
3 | [2H]C([2H])([2H])Oc1cc2nn([C@H]3CC[C@H](N4CCN(C(=O)C5CN(c6cc(F)c([C@H]7CCC(=O)NC7=O)c(F)c6)C5)CC4)CC3)cc2cc1NC(=O)c1cccc(C(F)(F)F)n1 [Example 165, N-(2-((1r,4r)-4-(4-(1-(4-((R)-2,6-dioxopiperidin-3-yl)-3,5-difluorophenyl)azetidine-3-carbonyl)piperazin-1-yl)cyclohexyl)-6-(methoxy-d3)-2H-indazol-5-yl)-6-(trifluoromethyl)picolinamide] | 97% | 13 nM | 98% | 0.7 nM | 73 nM | – | – | 7.9 nM | 91% | 82%
4 | CC(C)(O)c1cc2nn([C@H]3CC[C@H](N4CCN(C(=O)C5CN(c6cc(F)c([C@H]7CCC(=O)NC7=O)c(F)c6)C5)CC4)CC3)cc2cc1NC(=O)c1ccc2cc(C#N)cnn12 [Example 178, 3-cyano-N-(2-((1r,4r)-4-(4-(1-(4-((R)-2,6-dioxopiperidin-3-yl)-3,5-difluorophenyl)azetidine-3-carbonyl)piperazin-1-yl)cyclohexyl)-6-(2-hydroxypropan-2-yl)-2H-indazol-5-yl)pyrrolo[1,2-b]pyridazine-7-carboxamide] | 97% | 0.6 nM | 98% | 0.4 nM | 6.4 nM | 17 nM | 100% | 1.2 nM | 61% | 92%
5 | CC(C)(O)c1cc2nn([C@H]3CC[C@H](N4CCN(CCc5cc(F)c([C@H]6CCC(=O)NC6=O)c(F)c5)CC4)CC3)cc2cc1NC(=O)c1ccc2cc(C#N)cnn12 [Example 182, 3-cyano-N-(2-((1R,4r)-4-(4-(4-((R)-2,6-dioxopiperidin-3-yl)-3,5-difluorophenethyl)piperazin-1-yl)cyclohexyl)-6-(2-hydroxypropan-2-yl)-2H-indazol-5-yl)pyrrolo[1,2-b]pyridazine-7-carboxamide] | 96% | 2.3 nM | 98% | 0.3 nM | 33 nM | 3.7 nM | 99% | 2.5 nM | 64% | 71%
6 | CC(C)(O)c1cc2nn([C@H]3CC[C@H](N4CCN(C5CCN(c6cc(F)c(C7CCC(=O)NC7=O)c(F)c6)CC5)CC4)CC3)cc2cc1NC(=O)c1ccc2cc(C#N)cnn12 (stereo partly drawn) [Example 196, 3-cyano-N-(2-((1r,4r)-4-(4-(1-(4-((R)-2,6-dioxopiperidin-3-yl)-3,5-difluorophenyl)piperidin-4-yl)piperazin-1-yl)cyclohexyl)-6-(2-hydroxypropan-2-yl)-2H-indazol-5-yl)pyrrolo[1,2-b]pyridazine-7-carboxamide] | 99% | 5.3 nM | 99% | 0.6 nM | 20 nM | 8.8 nM | 93% | 11 nM | 72% | 86%

The next lines start with results.

Row | Dmax (IRAK4 [1]; [5]) | DC50 (IRAK4 [1]; [6]) | Dmax (IRAK4 [1]; [7]) | DC50 (IRAK4 [1]; [8]) | IC50 [3] | DC50 (IRAK4 [4]) | Dmax (IRAK4 [4]) | SMILES | IC50 [2] | Emax [2] | Emax [3]
7 | – | – | 98% | 0.6 nM | 9 nM | 4.4 nM | 99% | CC(C)(O)c1cc2nn([C@H]3CC[C@H](N4CCN(CC5CN(c6cc(F)c([C@H]7CCC(=O)NC7=O)c(F)c6)C5)CC4)CC3)cc2cc1NC(=O)c1ccc2cc(C#N)cnn12 [Example 290, 3-cyano-N-(2-((1r,4r)-4-(4-((1-(4-((R)-2,6-dioxopiperidin-3-yl)-3,5-difluorophenyl)azetidin-3-yl)methyl)piperazin-1-yl)cyclohexyl)-6-(2-hydroxypropan-2-yl)-2H-indazol-5-yl)pyrrolo[1,2-b]pyridazine-7-carboxamide] | 0.8 nM | 71% | 96%
8 | – | – | 98% | 0.8 nM | 43 nM | 4.8 nM | 99% | C[C@@H]1CN(CCc2cc(F)c([C@H]3CCC(=O)NC3=O)c(F)c2)CCN1[C@H]1CC[C@H](n2cc3cc(NC(=O)c4ccc5cc(C#N)cnn45)c(C(C)(C)O)cc3n2)CC1 [Example 299, 3-cyano-N-(2-((1R,4r)-4-((R)-4-(4-((R)-2,6-dioxopiperidin-3-yl)-3,5-difluorophenethyl)-2-methylpiperazin-1-yl)cyclohexyl)-6-(2-hydroxypropan-2-yl)-2H-indazol-5-yl)pyrrolo[1,2-b]pyridazine-7-carboxamide] | 4 nM | 74% | 94%
9 | – | – | 98% | 0.6 nM | 26 nM | 3.4 nM | 98% | COC[C@H]1CN([C@H]2CC[C@H](n3cc4cc(NC(=O)c5ccc6cc(C#N)cnn56)c(C(C)(C)O)cc4n3)CC2)CCN1CCc1cc(F)c([C@H]2CCC(=O)NC2=O)c(F)c1 [Example 314, 3-cyano-N-(2-((1R,4r)-4-((R)-4-(4-((R)-2,6-dioxopiperidin-3-yl)-3,5-difluorophenethyl)-3-(methoxymethyl)piperazin-1-yl)cyclohexyl)-6-(2-hydroxypropan-2-yl)-2H-indazol-5-yl)pyrrolo[1,2-b]pyridazine-7-carboxamide] | 2.3 nM | 51% | 88%
10 | 95% | 1.9 nM | 96% | 0.8 nM | 41 nM | 25 nM | 100% | COC[C@H]1CN([C@H]2CC[C@H](n3cc4cc(NC(=O)c5ccc6cc(C#N)cnn56)c(C(C)(C)O)cc4n3)CC2)CCN1C1CCN(c2cc(F)c([C@H]3CCC(=O)NC3=O)c(F)c2)CC1 [Example 317, 3-cyano-N-(2-((1R,4r)-4-((R)-4-(1-(4-((R)-2,6-dioxopiperidin-3-yl)-3,5-difluorophenyl)piperidin-4-yl)-3-(methoxymethyl)piperazin-1-yl)cyclohexyl)-6-(2-hydroxypropan-2-yl)-2H-indazol-5-yl)pyrrolo[1,2-b]pyridazine-7-carboxamide] | 1 nM | 71% | 87%
